Laboratory results reported in publication PMC3923778 (PLoS Currents, 2014).
“Also recorded” adds a separate entry of the source.

Experiments:
[1] = molecular target: T1, PDE1B (Homo sapiens, UniProt Q01064); experiment: Cerep diversity panel screen at 10 µM; assay type: biochemical
T1 construct: Cerep (contract laboratory)
Protocol: (§1) Studies were conducted at Cerep (France)

[2] = molecular target: T2, PDE2A (Homo sapiens, UniProt O00408); experiment: Cerep diversity panel screen at 10 µM; assay type: biochemical
T2 construct: Cerep (contract laboratory)
Protocol: as §1

[3] = tested on: cGMP levels in the striatum; experiment: Microdialysis PD: cGMP in striatal extracellular dialysate; assay type: in vivo, mouse; details: male R6/2
Protocol: Microdialysis PK/PD studies were conducted at Brains Online, Inc. (San Francisco, CA, USA)
Male R6/2 (CBA/C57Bl/6 strain, CAG 120) mice aged 7-8 weeks (20 - 30 g; The Jackson Laboratory, USA) were used for the experiments. The animals were group housed in plastic cages (3-4 animals / cage) and had access to food and water ad libitum. Experiments were conducted in accordance with the declarations of Helsinki and were approved by the Institutional Animal Care and Use Committee of the University of California, San-Francisco.
Mice were anesthetized using isoflurane (2%, 800 mL/min O2). Bupivacain/epinephrine was used for local anesthesia. Carprophen was used peri-/post-operative as analgesia. The animals were placed in a stereotaxic frame (Kopf instruments, USA), and microdialysis probes were inserted into the striatum. Coordinates for the tips of the probes were for striatum: […] (AP) = +0.8 mm to bregma, lateral (L) = -1.7 mm to midline and ventral (V) = -4.0 mm to dura, the toothbar was set at 0.0 mm (Paxinos and Franklin, 2001). […] After surgery animals were kept individually in cages and provided food and water ad libitum. Animals were fasted the night before the experiment.
Experiments were performed one day after surgery. On the day of the experiment, the probes of the animals were connected with flexible PEEK tubing to a microperfusion pump (Syringe pump UV 8301501, Univentor, Malta). MQ probes were perfused with aCSF containing 0.2% albumin at a flow rate of 0.10 µL/min. As the carrier flow, ultrapurified H2O was used at a flow rate of 0.70 µL/min. I-shaped probes were perfused with aCSF at a flow rate of 1.5 µL/min. Microdialysis samples were collected for 30-minute periods by an automated fraction collector (CMA 142, Sweden) into mini-vials. Samples originating from I-shaped probes were collected into mini-vials already containing 15 µL of 0.02 M formic acid. 10 µL of 0.02 M formic acid was added in the samples originating from MQ probes. […] Following compound administration, microdialysate samples continued to be collected for 240 min at 30 minute intervals. All dialysis samples were stored at -80 °C.
Concentrations of cGMP were determined by HPLC with tandem mass spectrometry (MS/MS) detection. Standard samples were prepared in artificial dialysate matrix, consisting of 3 parts (v/v) aCSF mixed with 1 part 0.02M formic acid in ultrapurified H2O. Final concentrations of standard samples were 0.02, 0.05, 0.1, 0.2, 0.5, 1, 2, 5 and 10 nM. Quality control (QC) samples were prepared independently. Final concentrations were 0.3 (QClow), 0.75 (QCmid) and 7.5 (QChigh) nM. […]
Treatment effects were evaluated among different drug concentrations and also compared to baseline, using two-way ANOVA for repeated measurements followed by Student-Newman-Keuls post-hoc test. […]

[4] = Body weight during chronic dosing in R6/2 mice; assay type: in vivo, mouse; details: BID, ANOVA
Protocol: Body weight was measured starting at the age of 4 weeks and a further two times per week on the same day until the end of the study. This was done just prior to animals receiving doses for those days.
All values are presented as mean ± Standard Error of Mean (SEM), and differences are considered to be statistically significant at the p < 0.05 level. Statistical analysis was performed using StatsDirect statistical software. Differences between group means were analyzed by 1-way-ANOVA followed by Dunnett’s test (comparison to the control (=vehicle treated TG mice) group). The acquisition of the Cued two-choice swim test was analyzed using Fisher’s exact test.

[5] = tested on: R6/2 mice; experiment: Survival study in R6/2 mice; assay type: in vivo, mouse; details: for Mean (±SEM) Survival Time / Medial Survival Time: R6/2 mice
[6] = set-up: method as in PMID 8961086; details: rats; ref [27]; read-out: plasma Cmax exposure; cited from earlier work

T1 sequence (Q01064 whole entry, species assumed): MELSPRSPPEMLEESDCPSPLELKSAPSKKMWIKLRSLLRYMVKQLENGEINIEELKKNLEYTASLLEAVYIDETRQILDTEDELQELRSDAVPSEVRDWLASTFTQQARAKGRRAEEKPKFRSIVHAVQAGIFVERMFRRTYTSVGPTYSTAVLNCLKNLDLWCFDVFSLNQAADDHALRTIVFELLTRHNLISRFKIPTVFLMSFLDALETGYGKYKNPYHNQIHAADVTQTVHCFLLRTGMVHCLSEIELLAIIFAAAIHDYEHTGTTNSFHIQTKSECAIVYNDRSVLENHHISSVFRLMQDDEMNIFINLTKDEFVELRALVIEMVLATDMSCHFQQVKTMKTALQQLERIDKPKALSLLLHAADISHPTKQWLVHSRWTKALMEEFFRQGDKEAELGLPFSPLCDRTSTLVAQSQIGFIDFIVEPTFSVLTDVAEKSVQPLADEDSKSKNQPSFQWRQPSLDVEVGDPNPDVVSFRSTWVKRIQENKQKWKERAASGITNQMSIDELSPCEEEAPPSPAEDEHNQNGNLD
T2 sequence (O00408 whole entry, species assumed): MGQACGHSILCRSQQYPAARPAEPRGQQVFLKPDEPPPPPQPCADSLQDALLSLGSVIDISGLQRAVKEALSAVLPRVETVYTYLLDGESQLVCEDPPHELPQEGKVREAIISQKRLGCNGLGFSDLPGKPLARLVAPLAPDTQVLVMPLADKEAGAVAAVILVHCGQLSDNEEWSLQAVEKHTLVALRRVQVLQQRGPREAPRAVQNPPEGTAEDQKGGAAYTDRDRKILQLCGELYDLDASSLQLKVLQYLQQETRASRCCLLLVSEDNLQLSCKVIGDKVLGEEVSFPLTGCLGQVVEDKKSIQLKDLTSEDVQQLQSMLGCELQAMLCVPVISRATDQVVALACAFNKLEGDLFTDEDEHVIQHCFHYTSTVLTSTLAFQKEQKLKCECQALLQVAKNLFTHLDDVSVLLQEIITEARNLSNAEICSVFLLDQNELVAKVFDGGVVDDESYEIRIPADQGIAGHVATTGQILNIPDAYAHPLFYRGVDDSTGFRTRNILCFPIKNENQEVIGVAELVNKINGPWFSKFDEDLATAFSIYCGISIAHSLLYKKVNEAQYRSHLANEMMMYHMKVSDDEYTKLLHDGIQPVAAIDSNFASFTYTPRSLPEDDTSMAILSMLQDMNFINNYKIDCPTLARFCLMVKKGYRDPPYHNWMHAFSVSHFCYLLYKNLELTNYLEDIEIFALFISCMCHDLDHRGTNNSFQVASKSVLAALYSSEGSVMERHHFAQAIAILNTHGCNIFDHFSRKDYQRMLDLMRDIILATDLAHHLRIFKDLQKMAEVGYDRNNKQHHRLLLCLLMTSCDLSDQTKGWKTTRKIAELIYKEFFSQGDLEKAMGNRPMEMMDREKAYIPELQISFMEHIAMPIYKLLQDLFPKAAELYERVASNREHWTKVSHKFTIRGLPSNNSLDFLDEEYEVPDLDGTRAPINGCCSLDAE

CN1C(=O)c2nc(Cc3ccc(C(F)(F)F)cc3)[nH]c2N2C1=N[C@H]1CCC[C@H]12 [SCH-51866, (+)-cis-5,6a,7,8,9,9a-hexahydro-2-[4-[trifluro-methyl]phenylmethyl]-5-methyl-cylopent[4,5]imidazo [2,1-b]purin-4(3H)one]
inhibition at 10 µM [1]: 100% | inhibition at 10 µM [2]: 92% | Elevation in cGMP in extracellular dialysate over baseline ([3]; 3 mg/kg po acute): not | Elevation in cGMP in extracellular dialysate over baseline ([3]; 10 mg/kg po acute): significantly elevated cGMP levels; also recorded: significant over baseline | Elevation in cGMP in extracellular dialysate over baseline ([3]; 30 mg/kg po acute): significantly elevated cGMP levels; also recorded: significant over baseline | accumulation of cGMP versus dose ([3]; acute po): increased dose-proportionally | Body Weight: p vs Vehicle-treated R6/2 mice ([4]; Age Week 4, 10 mg/kg p.o.): ANOVA: p=0.878 | Body Weight: p vs Vehicle-treated R6/2 mice ([4]; Age Week 4, 30 mg/kg p.o.): ANOVA: p=0.878 | Body Weight: p vs Vehicle-treated R6/2 mice ([4]; Age Week 5, 10 mg/kg p.o.): ANOVA: p=0.762 | Body Weight: p vs Vehicle-treated R6/2 mice ([4]; Age Week 5, 30 mg/kg p.o.): ANOVA: p=0.762 | Body Weight: p vs Vehicle-treated R6/2 mice ([4]; Age Week 6, 10 mg/kg p.o.): ANOVA: p=0.934 | Body Weight: p vs Vehicle-treated R6/2 mice ([4]; Age Week 6, 30 mg/kg p.o.): ANOVA: p=0.934 | Body Weight: p vs Vehicle-treated R6/2 mice ([4]; Age Week 7, 10 mg/kg p.o.): ANOVA: p=0.766 | Body Weight: p vs Vehicle-treated R6/2 mice ([4]; Age Week 7, 30 mg/kg p.o.): ANOVA: p=0.766 | Body Weight: p vs Vehicle-treated R6/2 mice ([4]; Age Week 8, 10 mg/kg p.o.): ANOVA: p=0.926 | Body Weight: p vs Vehicle-treated R6/2 mice ([4]; Age Week 8, 30 mg/kg p.o.): ANOVA: p=0.926 | Body Weight: p vs Vehicle-treated R6/2 mice ([4]; Age Week 9, 10 mg/kg p.o.): ANOVA: p=0.886 | Body Weight: p vs Vehicle-treated R6/2 mice ([4]; Age Week 9, 30 mg/kg p.o.): ANOVA: p=0.886 | Body Weight: p vs Vehicle-treated R6/2 mice ([4]; Age Week 10, 10 mg/kg p.o.): ANOVA: p=0.969 | Body Weight: p vs Vehicle-treated R6/2 mice ([4]; Age Week 10, 30 mg/kg p.o.): ANOVA: p=0.969 | Body Weight: p vs Vehicle-treated R6/2 mice ([4]; Age Week 11, 10 mg/kg p.o.): ANOVA: p=0.891 | Body Weight: p vs Vehicle-treated R6/2 mice ([4]; Age Week 11, 30 mg/kg p.o.): ANOVA: p=0.891 | Body Weight: p vs Vehicle-treated R6/2 mice ([4]; Age Week 12, 10 mg/kg p.o.): ANOVA: p=0.774 | Body Weight: p vs Vehicle-treated R6/2 mice ([4]; Age Week 12, 30 mg/kg p.o.): ANOVA: p=0.774 | Body Weight: p vs Vehicle-treated R6/2 mice ([4]; Age Week 13, 10 mg/kg p.o.): ANOVA: p=0.855 | Body Weight: p vs Vehicle-treated R6/2 mice ([4]; Age Week 13, 30 mg/kg p.o.): ANOVA: p=0.855 | Body Weight: p vs Vehicle-treated R6/2 mice ([4]; Age Week 14, 10 mg/kg p.o.): ANOVA: p=0.878 | Body Weight: p vs Vehicle-treated R6/2 mice ([4]; Age Week 14, 30 mg/kg p.o.): ANOVA: p=0.878 | Body Weight: p vs Vehicle-treated R6/2 mice ([4]; Age Week 15, 10 mg/kg p.o.): ANOVA: p=0.989 | Body Weight: p vs Vehicle-treated R6/2 mice ([4]; Age Week 15, 30 mg/kg p.o.): ANOVA: p=0.989 | Body Weight: p vs Vehicle-treated R6/2 mice ([4]; Age Week 16, 10 mg/kg p.o.): ANOVA: p=0.651 | Body Weight: p vs Vehicle-treated R6/2 mice ([4]; Age Week 16, 30 mg/kg p.o.): ANOVA: p=0.651 | Body Weight: p vs Vehicle-treated R6/2 mice ([4]; Age Week 17, 10 mg/kg p.o.): ANOVA: p=0.817 | Body Weight: p vs Vehicle-treated R6/2 mice ([4]; Age Week 17, 30 mg/kg p.o.): ANOVA: p=0.817 | Body Weight: p vs Vehicle-treated R6/2 mice ([4]; Age Week 18, 10 mg/kg p.o.): ANOVA: p=0.644 | Body Weight: p vs Vehicle-treated R6/2 mice ([4]; Age Week 18, 30 mg/kg p.o.): ANOVA: p=0.644 | Body Weight: p vs Vehicle-treated R6/2 mice ([4]; Age Week 19, 10 mg/kg p.o.): ANOVA: p=0.975 | Body Weight: p vs Vehicle-treated R6/2 mice ([4]; Age Week 19, 30 mg/kg p.o.): ANOVA: p=0.975 | Body Weight: p vs Vehicle-treated R6/2 mice ([4]; Age Week 20, 10 mg/kg p.o.): ANOVA: p=0.900 | Body Weight: p vs Vehicle-treated R6/2 mice ([4]; Age Week 20, 30 mg/kg p.o.): ANOVA: p=0.900 | Body Weight: p vs Vehicle-treated R6/2 mice ([4]; Age Week 21, 10 mg/kg p.o.): ANOVA: p=0.996 | Body Weight: p vs Vehicle-treated R6/2 mice ([4]; Age Week 21, 30 mg/kg p.o.): ANOVA: p=0.996 | Generalized Wilcoxon (Peto-Prentice) Test, Chi-square for equiv. of death rates p ([5]; 10 mg/kg (p.o., BID) column): Chi-square for equiv. of death rates p=0.543 | Log-rank (Peto) Test, Chi-square for equiv. of death rates p ([5]; 10 mg/kg (p.o., BID) column): 0.555 | Mean (±SEM) Survival Time ([5]; 10 mg/kg (p.o., BID)): 115 (±7) days | Medial Survival Time ([5]; 10 mg/kg (p.o., BID)): 110 days | Generalized Wilcoxon (Peto-Prentice) Test, Chi-square for equiv. of death rates p ([5]; 30 mg/kg (p.o., BID) column): Chi-square for equiv. of death rates p=0.543 | Log-rank (Peto) Test, Chi-square for equiv. of death rates p ([5]; 30 mg/kg (p.o., BID) column): 0.555 | Mean (±SEM) Survival Time ([5]; 30 mg/kg (p.o., BID)): 122 (±5) days | Medial Survival Time ([5]; 30 mg/kg (p.o., BID)): 121 days | Survival, effect in words ([5]; vs R6/2 vehicle-treated animals): no survival benefit | Cmax [6]: 2.37 to 3.8 µM
